Laboratory results as given in patent publication US20170326100A1, “COMPOSITION FOR ACTIVATING LONGEVITY GENE” (AMOREPACIFIC CORPORATION, priority 2014, published 2017).
Entries after “also recorded” stand apart in the source; their conditions may differ.

Columns and labels:
[1] = system: ERCC8 mRNA; test: ERCC8 activation: relative expression of ERCC8 mRNA in fibroblasts (TaqMan RT-PCR); format: cell-based, human; conditions: fibroblasts (NHF), 10 ppm, 24 hours, control = 1.0
Protocol: (§1) Experiment was conducted using normal human keratinocytes (NHK) and normal human fibroblasts (NHF) to investigate the effect of a methylated catechin. Specifically, 2×10^5 NHFs (normal human fibroblasts) purchased from Lonza (Allendale, N.J., USA) were cultured on a 60-mm dish at 37° C. for 24 hours using DMEM. The medium was discarded and the cells were transferred to a new tissue culture flask. Also, NHEKs (normal human epidermal keratinocytes, corresponding to NHK) purchased from Lonza (Allendale, N.J., USA) were cultured using a keratinocyte growth medium (KGM-GOLD, Lonza, Allendale, N.J., USA). The cells were detached with 0.025% trypsin and transferred to a new tissue culture flask after subculturing.
(§2) Specifically, after treating the keratinocytes (NHK) and the fibroblasts (NHF) with each of retinol, green tea EGCG and green tea EGCG″3Me at 10 ppm, followed by incubation at 37° C. for 24 hours, total RNA was isolated from the cells and the relative expression of ERCC8 mRNA was compared.
(§3) The total RNA was isolated using TRIzol™ (Invitrogen, Carlsbad, Calif., USA) according to the manufacturer's protocol. RNA concentration was measured spectrophotometrically and RNA integrity was measured using BioAnalyzer 2100 (Agilent Technologies, Santa Clara, Calif., USA). 4 μg of RNA was reverse transcribed to cDNA using SuperScript®III reverse transcriptase (Invitrogen, Carlsbad, Calif., USA). The cDNA was stored at −70° C. The expression level of the target gene was measured by quantitative real-time TaqMan RT-PCR (7500Fast, Applied Biosystems, Foster City, Calif., USA). The cycle condition was 10 minutes at 95° C., 50 cycles of […] at 95° C. and 1 minute at 60° C.

[2] = system: Sirt-1 mRNA; test: Sirt-1 activation: relative expression of Sirt-1 mRNA in fibroblasts (TaqMan RT-PCR); format: cell-based, human; conditions: fibroblasts (NHF), 10 ppm, 24 hours, control = 1.0
Protocol: as §1
(§4) Specifically, after treating the keratinocytes (NHK) and the fibroblasts (NHF) with each of retinol, green tea EGCG and green tea EGCG″3Me at 10 ppm, followed by incubation at 37° C. for 24 hours, total RNA was isolated from the cells and the relative expression of Sirt-1 mRNA was compared.
as §3

[3] = system: Fox03 mRNA; test: FoxO3 activation: relative expression of Fox03 mRNA in fibroblasts (TaqMan RT-PCR); format: cell-based, human; conditions: fibroblasts (NHF), 10 ppm, 24 hours, control = 1.0
Protocol: as §1
(§5) Specifically, after treating the keratinocytes (NHK) and the fibroblasts (NHF) with each of retinol, green tea EGCG and green tea EGCG″3Me at 10 ppm, followed by incubation at 37° C. for 24 hours, total RNA was isolated from the cells and the relative expression of Fox03 mRNA was compared.
as §3

[4] = system: Klotho mRNA; test: Klotho activation: relative expression of Klotho mRNA in fibroblasts (TaqMan RT-PCR); format: cell-based, human; conditions: fibroblasts (NHF), 24 hours, control = 1.0
Protocol: as §1
(§6) Specifically, after treating the keratinocytes (NHK) and the fibroblasts (NHF) with each of retinol (10 ppm), green tea EGCG (1 and 10 ppm) and green tea EGCG″3Me (1 and 10 ppm), followed by incubation at 37° C. for 24 hours, total RNA was isolated from the cells and the relative expression of Klotho mRNA was compared.
as §3

[5] = system: ERCC8 mRNA; test: ERCC8 activation: relative expression of ERCC8 mRNA in keratinocytes (TaqMan RT-PCR); format: cell-based, human; conditions: keratinocytes (NHK), 10 ppm, 24 hours, control = 1.0
Protocol: as §1, §2, §3

[6] = system: XPD mRNA; test: XPD activation: relative expression of XPD mRNA in keratinocytes (TaqMan RT-PCR); format: cell-based, human; conditions: keratinocytes (NHK), 10 ppm, 37° C. 24 hours, control = 1.0
Protocol: as §1
(§7) Specifically, after treating the keratinocytes (NHK) and the fibroblasts (NHF) with each of retinol, green tea EGCG and green tea EGCG″3Me at 10 ppm, followed by incubation at 37° C. for 24 hours, total RNA was isolated from the cells and the relative expression of XPD mRNA was compared.
as §3

[7] = system: Sirt-1 mRNA; test: Sirt-1 activation: relative expression of Sirt-1 mRNA in keratinocytes (TaqMan RT-PCR); format: cell-based, human; conditions: keratinocytes (NHK), 10 ppm, 24 hours, control = 1.0
Protocol: as §1, §4, §3

[8] = system: Klotho mRNA; test: Klotho activation: relative expression of Klotho mRNA in keratinocytes (TaqMan RT-PCR); format: cell-based, human; conditions: keratinocytes (NHK), 24 hours, control = 1.0
Protocol: as §1, §6, §3

[9] = system: XPD mRNA; test: XPD activation: relative expression of XPD mRNA in fibroblasts (TaqMan RT-PCR); format: cell-based, human; conditions: fibroblasts (NHF), 10 ppm, 37° C. 24 hours, control = 1.0
Protocol: as §1, §7, §3

[10] = system: Fox03 mRNA; test: FoxO3 activation: relative expression of Fox03 mRNA in keratinocytes (TaqMan RT-PCR); format: cell-based, human; conditions: keratinocytes (NHK), 10 ppm, 24 hours, control = 1.0
Protocol: as §1, §5, §3

[11] = system: normal human epidermal keratinocytes (NHEKs); test: Evaluation of cellular differentiation of keratinocytes; format: cell-based; conditions: various concentrations, 48 hours, FIG. 1
Protocol: In order to investigate the effect of the methylated catechin on the differentiation of keratinocytes, normal human epidermal keratinocytes (NHEKs) were treated with EGCG″3Me and EGCG at various concentrations for 48 hours.

Row | Compound | relative expression of ERCC8 mRNA [1] | relative expression of Sirt-1 mRNA [2] | relative expression of Fox03 mRNA [3] | relative expression of Klotho mRNA ([4]; 1 ppm) | relative expression of Klotho mRNA ([4]; 10 ppm) | relative expression of ERCC8 mRNA [5] | relative expression of XPD mRNA [6] | relative expression of Sirt-1 mRNA [7] | relative expression of Klotho mRNA ([8]; 1 ppm) | relative expression of Klotho mRNA ([8]; 10 ppm) | relative expression of XPD mRNA [9] | relative expression of Fox03 mRNA [10] | differentiation of keratinocytes [11]
1 | O=C(O[C@@H]1Cc2c(O)cc(O)cc2O[C@@H]1c1cc(O)c(O)c(O)c1)c1cc(O)c(O)c(O)c1 [Green tea EGCG, epigallocatechin gallate] | 2.3 | 2.0 | 2.1 | 1.2 | 1.8 | 1.9 | 9.2 | 8.2 | 2.5 | 10.2 | 2.8 | 1.4 | –
2 | CC1=C(/C=C/C(C)=C/C=C/C(C)=C/CO)C(C)(C)CCC1 [Retinol] | 1.0 | 1.9 | 1.4 | – | 2.2 | 1.2 | 10.1 | 7.9 | – | 9.8 | 2.4 | 1.1 | –
3 | epigallocatechin-3-O-(3-O-methyl)gallate [Green tea EGCG3″Me] | 5.1 | 4.3 | 5.3 | 1.7 | 2.1 | 4.3 | 21.4 | 17.1 | 4.2 | 10.5 | 6.9 | 3.2 | promoted the differentiation of the keratinocytes in a concentration-dependent manner; also recorded: superior differentiation of the keratinocytes at low concentration as compared to EGCG
